The source of these data is PubChem BioAssay AID743472 (Broad Institute, 2014).

Active and inactive are the calls of the source.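 How the source made its calls: active means fitted curve drops past -35% activity change at a concentration no higher than twice the top valid tested dose; inconclusive means no clear call, values can overlap the other calls; inactive means the rest, including activity opposite to the expected direction.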

This assay can be described thus: viability loss in A549 lung cells – cell-based, luminescence, dry powder, set 12, cytotoxicity control, dose response (AID 743472). As to conditions: A549 viability, CellTiter-Glo ATP luminescence, 72 h.

Regarding `N#CC1=C(N)Oc2cc(N)ccc2C1c1ccc(Cl)cc1` (stereo unspecified), under “at 26 µM (top of the series)”, the activity change, negative = cytotoxicity was -4.23% (inactive).

On to `CC[C@@]1(O)C(=O)OCc2c1cc1n(c2=O)Cc2cc3c(CN(C)C)c(O)ccc3nc2-1`, for which the activity change, negative = cytotoxicity (at 3 µM (top of the series)) was -28% (inactive).

For `COc1ccc(C2=Nn3c(nnc3-c3ccccc3)SC2)cc1OC`, under “at 26 µM (top of the series)”, the activity change, negative = cytotoxicity is -5.8% (inactive).

`CCN(CCO)CCCOc1ccc2c(Nc3cc(CC(=O)Nc4cccc(F)c4)[nH]n3)ncnc2c1`: for the setting “at 1.6 µM (top of the series)”, the activity change, negative = cytotoxicity is -5.27% (inactive).

For `COc1ccc(C2CNC(=O)C2)cc1OC1CCCC1` (stereo unspecified), where the note is “at 26 µM (top of the series)”, the activity change, negative = cytotoxicity was 3.58% (inactive).

For `Cc1ccccc1C1C(C#N)=C(N)Oc2cc(N)ccc21` (stereo unspecified), the activity change, negative = cytotoxicity (at 26 µM (top of the series)) is -2.49% (inactive).
